The text below walks through data of patent EP2545917B1, “NOVEL EP4 AGONIST” (Kaken Pharmaceutical Co., Ltd., priority 2010, dated 2011).

What is called Ki is a measure of affinity in units of concentration, obtained from inhibition or displacement. In general, IC50 refers to the midpoint of a concentration-inhibition curve. High values mean weaker potency, low ones greater potency.

One experiment concerns the target T1, Human EP1 (Homo sapiens, UniProt P34995).
T1 construct: expressed in transfected cells; host or cells: COS-7
T1 sequence (P34995 1-402): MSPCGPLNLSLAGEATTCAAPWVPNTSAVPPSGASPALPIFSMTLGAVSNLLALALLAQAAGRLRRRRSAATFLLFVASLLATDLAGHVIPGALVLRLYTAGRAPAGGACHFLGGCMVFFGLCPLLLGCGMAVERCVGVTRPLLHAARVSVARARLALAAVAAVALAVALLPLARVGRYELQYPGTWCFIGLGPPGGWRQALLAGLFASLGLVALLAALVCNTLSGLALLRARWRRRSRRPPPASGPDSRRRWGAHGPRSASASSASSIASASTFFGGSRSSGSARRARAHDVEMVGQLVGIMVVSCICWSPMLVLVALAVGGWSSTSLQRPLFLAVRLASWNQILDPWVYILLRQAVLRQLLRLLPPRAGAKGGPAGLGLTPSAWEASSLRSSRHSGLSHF
As to the kind of experiment: Receptor affinity, tritium-labeled PGE2 binding to membranes of transfected COS-7 cells. On the procedure:
(§1) PG receptor affinity of compound F and compound J of the present invention was evaluated. Compound F used was one synthesized in Example 9, and compound J was prepared by separating and purifying the compound synthesized in Example 14 with a column (the same preparations were used in the following Examples). COS-7 cells were transfected with the genes of mouse EP4, human EP1-4 or human IP to overexpress the receptor and then the cell membranes were collected. As a labeled ligand, tritium-labeled PGE2 was used for EPs; tritium-labeled iloprost, for IP. The dissociation constant Kd value was obtained and inhibition constant Ki value of each test compound was determined in a conventional method. As a reference control, PGE2 was used for EPs; beraprost sodium (BPS), for IP.

In the next experiment the target is T2, Human EP2 (Homo sapiens, UniProt P43116).
T2 construct: expressed in transfected cells; host or cells: COS-7
T2 sequence (P43116 whole entry): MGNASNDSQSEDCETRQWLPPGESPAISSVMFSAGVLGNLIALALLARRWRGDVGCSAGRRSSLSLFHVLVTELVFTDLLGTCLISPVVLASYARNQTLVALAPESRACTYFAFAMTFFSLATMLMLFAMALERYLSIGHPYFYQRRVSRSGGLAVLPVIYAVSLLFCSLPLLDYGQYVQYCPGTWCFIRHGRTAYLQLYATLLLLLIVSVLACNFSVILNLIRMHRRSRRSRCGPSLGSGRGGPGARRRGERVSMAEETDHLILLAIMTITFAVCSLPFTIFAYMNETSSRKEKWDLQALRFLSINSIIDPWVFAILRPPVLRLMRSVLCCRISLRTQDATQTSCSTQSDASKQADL
Described as above. The procedure: as §1, with “As a labeled ligand, tritium-labeled PGE2 was used for EPs; tritium-labeled iloprost, for IP.” left out, “method.” for “method. As a reference control, PGE2 was used for EPs; beraprost sodium (BPS), for IP.”

The target of another experiment is T3, Mouse EP4 (Mus musculus, UniProt P32240).
T3 construct: expressed in transfected cells; host or cells: COS-7
T3 sequence (P32240 whole entry): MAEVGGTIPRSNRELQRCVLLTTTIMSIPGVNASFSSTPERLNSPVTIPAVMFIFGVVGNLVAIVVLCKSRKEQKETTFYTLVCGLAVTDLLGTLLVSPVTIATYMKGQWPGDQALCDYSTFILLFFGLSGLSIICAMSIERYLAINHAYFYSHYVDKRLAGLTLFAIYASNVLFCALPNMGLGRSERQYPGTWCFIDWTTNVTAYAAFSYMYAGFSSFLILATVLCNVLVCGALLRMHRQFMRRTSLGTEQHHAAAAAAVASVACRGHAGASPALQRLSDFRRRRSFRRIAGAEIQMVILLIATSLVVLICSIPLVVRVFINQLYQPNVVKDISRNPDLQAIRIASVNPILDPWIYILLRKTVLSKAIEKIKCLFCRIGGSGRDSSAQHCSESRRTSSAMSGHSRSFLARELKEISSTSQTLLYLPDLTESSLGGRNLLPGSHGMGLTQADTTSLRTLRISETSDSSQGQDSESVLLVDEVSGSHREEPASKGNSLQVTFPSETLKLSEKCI
The description is as above. On the procedure: as §1, with “As a labeled ligand, tritium-labeled PGE2 was used for EPs; tritium-labeled iloprost, for IP.” left out, “method.” for “method. As a reference control, PGE2 was used for EPs; beraprost sodium (BPS), for IP.”

The target in the next experiment is T4, Human EP3 (Homo sapiens, UniProt P43115).
T4 construct: expressed in transfected cells; host or cells: COS-7
T4 sequence (P43115 1-390): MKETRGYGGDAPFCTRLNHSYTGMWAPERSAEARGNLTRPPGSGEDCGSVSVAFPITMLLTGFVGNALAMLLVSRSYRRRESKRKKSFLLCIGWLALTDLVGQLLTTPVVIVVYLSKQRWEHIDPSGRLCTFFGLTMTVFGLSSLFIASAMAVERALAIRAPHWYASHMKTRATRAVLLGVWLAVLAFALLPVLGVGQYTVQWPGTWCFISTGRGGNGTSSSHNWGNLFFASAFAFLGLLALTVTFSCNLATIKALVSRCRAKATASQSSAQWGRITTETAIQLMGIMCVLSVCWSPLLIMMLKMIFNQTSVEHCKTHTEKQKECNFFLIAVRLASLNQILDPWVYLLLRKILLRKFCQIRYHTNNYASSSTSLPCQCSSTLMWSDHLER
The experiment is described as above. On the procedure:
(§2) COS-7 cells were transfected with the genes of mouse EP4, human EP1-4 or human IP to overexpress the receptor and then the cell membranes were collected. […] The dissociation constant Kd value was obtained and inhibition constant Ki value of each test compound was determined in a conventional method.

In another experiment the target is T5, Human EP4 (Homo sapiens, UniProt P35408).
T5 construct: expressed in transfected cells; host or cells: COS-7
T5 sequence (P35408 whole entry): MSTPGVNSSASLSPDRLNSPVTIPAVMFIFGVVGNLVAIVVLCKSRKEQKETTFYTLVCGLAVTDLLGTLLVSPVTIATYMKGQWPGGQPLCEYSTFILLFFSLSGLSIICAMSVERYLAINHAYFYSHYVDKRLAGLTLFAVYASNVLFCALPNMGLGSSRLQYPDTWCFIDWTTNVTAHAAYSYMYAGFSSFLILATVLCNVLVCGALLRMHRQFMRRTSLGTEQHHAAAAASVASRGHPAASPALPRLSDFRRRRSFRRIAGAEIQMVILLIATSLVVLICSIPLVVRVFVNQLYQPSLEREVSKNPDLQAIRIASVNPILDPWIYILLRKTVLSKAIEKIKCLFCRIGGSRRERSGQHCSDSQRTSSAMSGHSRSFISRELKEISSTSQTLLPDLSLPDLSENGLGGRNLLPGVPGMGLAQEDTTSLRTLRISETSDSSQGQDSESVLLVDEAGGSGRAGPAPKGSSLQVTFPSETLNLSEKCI
The experiment is described as above. The procedure: as §2

Experiment [1] relates to Human Platelet Aggregation. As to the kind of experiment: Inhibitory effect on ADP-induced platelet aggregation in platelet-rich plasma. The format is cell-based. The settings on record: ADP 10 µmol/L, geometric mean of three volunteers. On the procedure: The inhibitory effect of compounds F and J, and carboxylate forms thereof on platelet aggregation was evaluated. The carboxylate forms were prepared by separating and purifying the compound synthesized in Example 15 with a column. Blood was drawn from 3 healthy volunteers using sodium citrate as an anticoagulant, and platelet-rich plasma was prepared. The platelet-rich plasma was treated with physiological saline or test compounds and, 2 min later, platelet aggregation was induced with adenosine diphosphate (ADP, final concentration 10 µmol/L) and recorded with a platelet aggregation measurement apparatus (nephelometry).

The subject of the next experiment is IP-10. In words: Suppressive effect on cytokine production, whole blood stimulated with lipopolysaccharide, ELISA. The format is cell-based. The settings on record: human whole blood, indometacin, 48 hr, geometric mean of three volunteers.
For experiment [2], the system named is indomethacin-induced small intestinal injury. As to the kind of experiment: Indomethacin-induced small intestinal injury model in rats. The format is in vivo, SD rats. The procedure:
Male SD rats, 7 weeks old (Charles River) were purchased, acclimated for 1 week and used for the study. The rats were grouped based on the body weight and subcutaneously ) administered with indomethacin (SIGMA, Lot No. 19F0018) at 15 mg/5 mL/kg to all groups to induce small intestinal injury. Compound F at doses of 0.01, 0.1 and 1 mg/kg was orally administered at a volume of 5 mL/kg 30 min before and 6 hr after the subcutaneous administration of indomethacin. To the control group was orally administered a solvent (1 vol% ethanol solution) at 5 mL/kg in the same manner. Eight animals were used for each group.
The rats were intravenously administered with 2 mL of 10 mg/mL Evans blue solution under ether anesthesia 23.5 hr after the indomethacin administration. After 30 min, the rats were bled to death from the abdominal aorta and caudal vena cava under ether anesthesia and the small intestine was isolated. The isolated small intestine was filled with an adequate amount (about 35 mL) of 2 vol% neutral formalin solution, and fixed for about 15 min. Thereafter, the total small intestine was incised along the mesenteric attachment site, and extended on a vinyl chloride board. The length and width of each ulcer were measured under a stereomicroscope, the area was calculated, and the sum thereof was taken as the total ulcer area.

With `Cc1cccc([C@@H](C)[C@H](O)/C=C/[C@@H]2[C@@H]3[C@H](C[C@H]2O)O/C(=C\CCCc2nnn[nH]2)C3(F)F)c1` [Compound F, 4-[(Z)-(1S,5R,6R,7R)-6-[(1E,3R,4R)-3-hydroxy-4-(m-tolyl)-1-pentenyl]-7-hydroxy-2-oxa-4,4-difluoro-bicyclo[3.3.0]octan-3-ylidene]-1-(tetrazol-5-yl)butane], the Ki stood at 610 nM at Human EP1; 570 nM at Human EP2; 68 nM on Mouse EP4; 410 nM on Human EP3; 6.6 nM on Human EP4. For the same molecule, the “affinity for binding to human EP4 higher than that to human IP” value at Human EP4 (ratio of Ki values) is recorded as no less than 100 fold. Moreover, the “affinity for binding to human EP4 higher than those to human EP1, EP2 and EP3 receptors” value at Human EP4 (ratio of Ki values) is given as no less than 60 fold. For the same molecule, the IC50 in experiment [1] is 917 nM; in the experiment on IP-10, 1.14 nM. The “effect on total ulcer area in the small intestine” value in experiment [2] (oral 1 mg/kg 30 min before and 6 hr after indomethacin) is recorded as “completely reduced the area”; in experiment [2] (oral 0.01, 0.1 and 1 mg/kg 30 min before and 6 hr after indomethacin), “significantly reduced the ulcer area in a dose-dependent manner from a dose of 0.1 mg/kg administration”.
